Converted amounts (≈) assume the structure as drawn.
Columns and labels:
Assay type in all cases: cell-based
[1] = tested on: Streptococcus pneumoniae 1095; conditions: Streptococcus pneumoniae 1095; microtiter broth dilution
Outline: (§1)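 Steps: dissolve compound in DMSO to 40 mg/ml stock; dilute in broth across microtiter trays; inoculate strains; record MIC per NCCLS M100-S14.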

[2] = tested on: Streptococcus pneumoniae 1175; conditions: Streptococcus pneumoniae 1175; microtiter broth dilution
Outline: as §1

[3] = tested on: Haemophilus influenzae 1218; assay: MIC, microtiter broth dilution (NCCLS M100-S14), H. influenzae 1218 (susceptible); conditions: Haemophilus influenzae 1218
Outline: as §1

[4] = tested on: Streptococcus pyogenes 1079; assay: MIC, microtiter broth dilution (NCCLS M100-S14), S. pyogenes 1079 (ermB); conditions: Streptococcus pyogenes 1079
Outline: as §1

[5] = tested on: Streptococcus pneumoniae 1016; assay: MIC, microtiter broth dilution (NCCLS M100-S14), S. pneumoniae 1016 (susceptible); conditions: Streptococcus pneumoniae 1016
Outline: as §1

Row | SMILES | MIC S. pneumo. 1095 [1] | MIC S. pneumo. 1175 [2] | MIC H. influenzae 1218 [3] | MIC S. pyogenes 1079 [4] | MIC S. pneumo. 1016 [5]
1 | CCC1OC(=O)C(C)C(=O)C(C)C(OC2OC(C)CC(N(C)C)C2O)C(C)(OC)CC(C)C(=O)C(C)C2N(C3CN(S(=O)(=O)c4cccc(Cl)c4)C3)C(=O)OC12C (stereo not drawn) [Example 3.107, 3-descladinosyl-11,12-dideoxy-6-O-methyl-3-oxo-12,11-(oxycarbonyl-(1-(3-chlorobenzene-1-sulfonyl)-azetidin-3-yl)-imino)-erythromycin A] | <0.063 mg/L | <0.063 mg/L | 025 mg/L (≈ 29.7 µM) | 1 mg/L (≈ 1.19 µM) | <0.063 mg/L
2 | CCC1OC(=O)C(C)C(=O)C(C)C(OC2OC(C)CC(N(C)C)C2O)C(C)(OC)CC(C)C(=O)C(C)C2N(C3CN(S(=O)(=O)c4ccc(NC(C)=O)cc4)C3)C(=O)OC12C (stereo not drawn) [Example 3.108, 3-descladinosyl-11,12-dideoxy-6-O-methyl-3-oxo-12,11-(oxycarbonyl-(1-(4-acetamidobenzene-1-sulfonyl)-azetidin-3-yl)-imino)-erythromycin A] | <0.063 mg/L | 0.5 mg/L (≈ 0.578 µM) | 1 mg/L (≈ 1.16 µM) | 0.25 mg/L (≈ 0.289 µM) | <0.063 mg/L
3 | CCC1OC(=O)C(C)C(=O)C(C)C(OC2OC(C)CC(N(C)C)C2O)C(C)(OC)CC(C)C(=O)C(C)C2N(C3CN(S(=O)(=O)c4ccc(OC)c(OCC#N)c4)C3)C(=O)OC12C (stereo not drawn) [Example 3.109, 3-descladinosyl-11,12-dideoxy-6-O-methyl-3-oxo-12,11-(oxycarbonyl-(1-(3-(cyanomethoxy)-4-methoxybenzene-1-sulfonyl)-azetidin-3-yl)-imino)-erythromycin A] | <0.063 mg/L | <0.063 mg/L | <0.063 mg/L | 0.125 mg/L (≈ 0.14 µM) | <0.063 mg/L
4 | CCC1OC(=O)C(C)C(=O)C(C)C(OC2OC(C)CC(N(C)C)C2O)C(C)(OC)CC(C)C(=O)C(C)C2N(C3CN(S(=O)(=O)c4cccc(Oc5ccc(F)cc5)c4)C3)C(=O)OC12C (stereo not drawn) [Example 3.110, 3-descladinosyl-11,12-dideoxy-6-O-methyl-3-oxo-12,11-(oxycarbonyl-(1-(3-(4-fluorophenoxy)benzene-1-sulfonyl)-azetidin-3-yl)-imino)erythromycin A] | <0.063 mg/L | <0.063 mg/L | 2 mg/L (≈ 2.18 µM) | 4 mg/L (≈ 4.36 µM) | <0.063 mg/L
5 | CCC1OC(=O)C(C)C(=O)C(C)C(OC2OC(C)CC(N(C)C)C2O)C(C)(OC)CC(C)C(=O)C(C)C2N(C3CN(S(=O)(=O)c4ccc(C)c5ncccc45)C3)C(=O)OC12C (stereo not drawn) [Example 3.111, 3-descladinosyl-11,12-dideoxy-6-O-methyl-3-oxo-12,11-(oxycarbonyl-(1-(8-methylquinoline-5-sulfonyl)-azetidin-3-yl)-imino)erythromycin A] | <0.063 mg/L | <0.063 mg/L | 0.5 mg/L (≈ 0.573 µM) | 1 mg/L (≈ 1.15 µM) | <0.063 mg/L
6 | CCC1OC(=O)C(C)C(=O)C(C)C(OC2OC(C)CC(N(C)C)C2O)C(C)(OC)CC(C)C(=O)C(C)C2N(C3CN(S(=O)(=O)c4ccc(OC)c5nccnc45)C3)C(=O)OC12C (stereo not drawn) [Example 3.112, 3-descladinosyl-11,12-dideoxy-6-O-methyl-3-oxo-12,11-(oxycarbonyl-(1-(8-methoxyquinoxaline-5-sulfonyl)-azetidin-3-yl)-imino)erythromycin A] | <0.063 mg/L | 0.25 mg/L (≈ 0.281 µM) | 2 mg/L (≈ 2.25 µM) | 0.125 mg/L (≈ 0.14 µM) | <0.063 mg/L
7 | CCC1OC(=O)C(C)C(=O)C(C)C(OC2OC(C)CC(N(C)C)C2O)C(C)(OC)CC(C)C(=O)C(C)C2N(C3CN(S(=O)(=O)c4ccc(OC(F)F)c5ncccc45)C3)C(=O)OC12C (stereo not drawn) [Example 3.113, 3-descladinosyl-11,12-dideoxy-6-O-methyl-3-oxo-12,11-(oxycarbonyl-(1-(8-(difluoromethoxy)quinoline-5-sulfonyl)-azetidin-3-yl)-imino)-erythromycin A] | <0.063 mg/L | <0.063 mg/L | 1 mg/L (≈ 1.08 µM) | 0.5 mg/L (≈ 0.541 µM) | <0.063 mg/L
8 | CCC1OC(=O)C(C)C(=O)C(C)C(OC2OC(C)CC(N(C)C)C2O)C(C)(OC)CC(C)C(=O)C(C)C2N(C3CN(S(=O)(=O)c4ccc(C)c5nccnc45)C3)C(=O)OC12C (stereo not drawn) [Example 3.114, 3-descladinosyl-11,12-dideoxy-6-O-methyl-3-oxo-12,11-(oxycarbonyl-(1-(8-methylquinoxaline-5-sulfonyl)-azetidin-3-yl)-imino)-erythromycin A] | 0.125 mg/L (≈ 0.143 µM) | <0.063 mg/L | 0.25 mg/L (≈ 0.286 µM) | 1 mg/L (≈ 1.14 µM) | <0.063 mg/L
9 | CCC1OC(=O)C(C)C(=O)C(C)C(OC2OC(C)CC(N(C)C)C2O)C(C)(OC)CC(C)C(=O)C(C)C2N(C3CN(S(=O)(=O)c4ccc(N5CCOC5=O)cc4)C3)C(=O)OC12C (stereo not drawn) [Example 3.115, 3-descladinosyl-11,12-dideoxy-6-O-methyl-3-oxo-12,11-(oxycarbonyl-(1-(4-(2-oxooxazolidin-3-yl)benzene-1-sulfonyl)-azetidin-3-yl)-imino)-erythromycin A] | <0.063 mg/L | 0.125 mg/L (≈ 0.14 µM) | 1 mg/L (≈ 1.12 µM) | 0.25 mg/L (≈ 0.28 µM) | <0.063 mg/L
10 | CCC1OC(=O)C(C)C(=O)C(C)C(OC2OC(C)CC(N(C)C)C2O)C(C)(OC)CC(C)C(=O)C(C)C2N(C3CN(S(=O)(=O)c4ccc5c(c4)N(C)S(=O)(=O)N5C)C3)C(=O)OC12C (stereo not drawn) [Example 3.116, 3-descladinosyl-11,12-dideoxy-6-O-methyl-3-oxo-12,11-(oxycarbonyl-(1-(1,3-dimethyl-2,1,3-benzothiadiazole-2,2-dioxide-0-5-sulfonyl)-azetidin-3-yl)-imino)-erythromycin A] | <0.063 mg/L | <0.063 mg/L | 0.5 mg/L (≈ 0.539 µM) | 0.5 mg/L (≈ 0.539 µM) | <0.063 mg/L
11 | CCc1nn(C)c2ccc(S(=O)(=O)N3CC(N4C(=O)OC5(C)C(CC)OC(=O)C(C)C(=O)C(C)C(OC6OC(C)CC(N(C)C)C6O)C(C)(OC)CC(C)C(=O)C(C)C45)C3)cc12 (stereo not drawn) [Example 3.117, 3-descladinosyl-11,12-dideoxy-6-O-methyl-3-oxo-12,11-(oxycarbonyl-(1-(3-ethyl-1-methyl-1H-indazole-5-sulfonyl)-azetidin-3-yl)-imino)-erythromycin A] | <0.063 mg/L | <0.063 mg/L | 1 mg/L (≈ 1.12 µM) | 1 mg/L (≈ 1.12 µM) | <0.063 mg/L
12 | CCC1OC(=O)C(C)C(=O)C(C)C(OC2OC(C)CC(N(C)C)C2O)C(C)(OC)CC(C)C(=O)C(C)C2N(CC3CN(C(c4ccccc4)c4ccccc4)C3)C(=O)OC12C (stereo not drawn) [Example 4.01, 3-descladinosyl-11,12-dideoxy-6-O-methyl-3-oxo-12,11-(oxycarbonyl-(1-(benzhydryl)-(azetidin-3-yl)-methyl)-imino)-erythromycin A] | 0.39 mg/L (≈ 0.46 µM) | 0.39 mg/L (≈ 0.46 µM) | 6.25 mg/L (≈ 7.37 µM) | 6.25 mg/L (≈ 7.37 µM) | <0.00 mg/L

Source: patent US7462600B2, “Macrolides” (Pfizer Inc, priority 2004, dated 2008)
